One test concerns the target KRAS G12V (Homo sapiens (Human), UniProt P01116, G12V). Put plainly: KRAS G12V degradation in SW620 cells (Western blot, DC50). Particulars: 24 hours. In kind it is cell-based. The method, boiled down: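 SW620 cells (homozygous KRAS G12V) were treated with compound for 24 hours at 37° C. KRAS in lysates was measured by Western blot with fluorescent secondary antibodies and expressed relative to DMSO vehicle (100%). DC50 came from a four-parameter variable-slope dose-response fit.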
(A western blot detects proteins with antibodies after separation by electrophoresis.)

In another test the test system is SW620 cells. The experiment in a line: 3D cell growth inhibition of SW620 cells carrying endogenous KRAS G12V mutation (CellTiter-Glo 3D, GI50). In kind it is cell-based. To be noted: Homo sapiens, SW-620, 144 h, read-out: SW620 3D cell growth GI50. As for the experimental part:
The following day, the test compound was administered to the cells by using 1000× compound stock solution prepared in DMSO at various concentrations. 1000× compound stock solution was first diluted in culturing medium to 10×, then 10 μL compound medium was added to each well in the cell plates. After administration of the compound, the cells were then incubated at 37° C. for 6 days. Upon completion, the plates were equilibrated at room temperature for approximately 10 minutes. 100 μL of CellTiter-Glo® 3D Reagent (Promega) was added to each well. The plates were then incubated at room temperature for 30 minutes and luminescence was recorded by EnSpire plate reader (PerkinElmer).

Another test concerns the target KRAS-G12V/RAF1 (Homo sapiens (Human), UniProt P01116, G12V). Put plainly: KRAS/RAF1 binding inhibition assay (AlphaScreen). The method, boiled down: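 Binding of GppNHp-loaded KRAS G12V to the RAF1 RBD was measured by AlphaScreen with test compound present in 2% DMSO (final), 60 min incubation at 4° C. Signals were converted to % inhibition versus DMSO, and IC50 was obtained by variable-slope nonlinear regression.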
On the technique in general: In Alpha technology, singlet oxygen from a donor bead excites a nearby acceptor bead.

pIC50: −log10 of the molar value. Where two headings read alike, the source gives them in different places.

Chain of KRAS-G12V/RAF1 (P01116-2 other isoform, or with tags, fused parts or gaps G12V): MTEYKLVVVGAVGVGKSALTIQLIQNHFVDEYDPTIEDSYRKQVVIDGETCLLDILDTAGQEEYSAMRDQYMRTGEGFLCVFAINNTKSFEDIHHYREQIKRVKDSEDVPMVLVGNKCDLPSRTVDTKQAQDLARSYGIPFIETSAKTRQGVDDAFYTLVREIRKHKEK
Chain of KRAS G12V (P01116-2 other isoform, or with tags, fused parts or gaps G12V): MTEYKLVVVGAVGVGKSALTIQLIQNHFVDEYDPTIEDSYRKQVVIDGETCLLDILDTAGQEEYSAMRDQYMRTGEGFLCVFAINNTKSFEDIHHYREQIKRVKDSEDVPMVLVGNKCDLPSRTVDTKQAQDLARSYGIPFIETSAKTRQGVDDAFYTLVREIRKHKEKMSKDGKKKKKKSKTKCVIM

One may read the DC50 as the concentration giving 50% degradation. Low values mean degradation at low concentration, high ones degradation only at high concentration. Usually GI50 stands for the concentration that inhibits growth by half. The term pIC50 denotes the negative decadic logarithm of the IC50, by convention in mol/L. Lower therefore signals a high IC50. The molecule `CCc1c(F)ccc2cc(O)cc(-c3ncc4c(N5CCC[C@@](C)(O)C5)nc(OCC5(CN6CCC(C)(CN7CCN(c8ccc9c(c8)CN([C@@H]8CCC(=O)NC8=O)C9=O)CC7)CC6)CC5)nc4c3F)c12` [Compound 63, (R)-3-(5-(4-((1-((1-(((7-(8-ethyl-7-fluoro-3-hydroxynaphthalen-1-yl)-8-fluoro-4-((R)-3-hydroxy-3-methylpiperidin-1-yl)pyrido[4,3-d]pyrimidin-2-yl)oxy)methyl)cyclopropyl)methyl)-4-methylpiperidin-4-yl)methyl)piperazin-1-yl)-1-oxoisoindolin-2-yl)piperidine-2,6-dione] yielded a DC50 at KRAS G12V of 1 to 10 nM. In addition, the GI50 with SW620 cells (SW620 cells, 6 days) was less than 10 nM. The pIC50 at KRAS-G12V/RAF1 was 6.70 to 7.70.
Consider `CCc1c(F)ccc2cc(O)cc(-c3ncc4c(N5CCC[C@@](C)(O)C5)nc(OCC5(CN6CCC7(CC6)CN(CC6CCN(c8ccc9c(c8)CN(C8CCC(=O)NC8=O)C9=O)CC6)C7)CC5)nc4c3F)c12` (stereo partly drawn) [Compound 131, 3-(5-(4-((7-((1-(((7-(8-ethyl-7-fluoro-3-hydroxynaphthalen-1-yl)-8-fluoro-4-((R)-3-hydroxy-3-methylpiperidin-1-yl)pyrido[4,3-d]pyrimidin-2-yl)oxy)methyl)cyclopropyl)methyl)-2,7-diazaspiro[3.5]nonan-2-yl)methyl)piperidin-1-yl)-1-oxoisoindolin-2-yl)piperidine-2,6-dione], for which the DC50 at KRAS G12V is less than 1 nM. The GI50 in the test on SW620 cells was less than 10 nM. Also, at KRAS-G12V/RAF1, the pIC50 was greater than 7.70.
For the molecule `CCc1c(F)ccc2cc(O)cc(-c3ncc4c(N5CCOC[C@@](C)(O)C5)nc(OCC5(CN6CCC7(CC6)CC(F)(CN6CCN(c8ccc9c(c8)CN([C@H]8CCC(=O)NC8=O)C9=O)CC6)C7)CC5)nc4c3F)c12` [Compound 175, (S)-3-(5-(4-((7-((1-(((7-(8-ethyl-7-fluoro-3-hydroxynaphthalen-1-yl)-8-fluoro-4-((S)-6-hydroxy-6-methyl-1,4-oxazepan-4-yl)pyrido[4,3-d]pyrimidin-2-yl)oxy)methyl)cyclopropyl)methyl)-2-fluoro-7-azaspiro[3.5]nonan-2-yl)methyl)piperazin-1-yl)-1-oxoisoindolin-2-yl)piperidine-2,6-dione], at KRAS G12V, the DC50 was less than 1 nM. Further, the GI50 in the test with SW620 cells (SW620 cells, 6 days) was less than 10 nM. In addition, on KRAS-G12V/RAF1, the pIC50 was greater than 7.70.
Taken in the same sequence, the figures for `CCc1c(F)ccc2cc(O)cc(-c3ncc4c(N5CCC[C@@](C)(O)C5)nc(OCC5(CN6CCC7(CC6)CN(C6CN(c8ccc9c(c8)CN(C8CCC(=O)NC8=O)C9=O)C6)C7)CC5)nc4c3F)c12` (stereo partly drawn) [Compound 163, 3-[5-[3-[7-[[1-[[7-(8-ethyl-7-fluoro-3-hydroxy-1-naphthyl)-8-fluoro-4-[(3R)-3-hydroxy-3-methyl-1-piperidyl]pyrido[4,3-d]pyrimidin-2-yl]oxymethyl]cyclopropyl]methyl]-2,7-diazaspiro[3.5]nonan-2-yl]azetidin-1-yl]-1-oxo-isoindolin-2-yl]piperidine-2,6-dione] were less than 1 nM, less than 10 nM and greater than 7.70.
Take `CCc1cccc2cc(O)cc(-c3ncc4c(N(C)[C@@H]5C[C@H]5F)nc(OCC5(CN6CCC(CN7CCN(c8ccc9c(c8)CN([C@H]8CCC(=O)NC8=O)C9=O)CC7)CC6)CC5)nc4c3F)c12` [Compound 29, (S)-3-(5-(4-((1-((1-(((7-(8-ethyl-3-hydroxynaphthalen-1-yl)-8-fluoro-4-(((1R,2R)-2-fluorocyclopropyl)(methyl)amino)pyrido[4,3-d]pyrimidin-2-yl)oxy)methyl)cyclopropyl)methyl)piperidin-4-yl)methyl)piperazin-1-yl)-1-oxoisoindolin-2-yl)piperidine-2,6-dione]: the GI50 with SW620 cells (SW620 cells, 6 days) lay in the range of 10 to 100 nM. On KRAS-G12V/RAF1, this molecule showed a pIC50 of less than 6.70.
Taken in the same sequence, the figures for `CCc1c(F)ccc2cc(O)cc(-c3ncc4c(N5CCC[C@@]6(CCO6)C5)nc(OCC5(CN6CCC(CN7CCN(c8ccc9c(c8)CN([C@H]8CCC(=O)NC8=O)C9=O)CC7)CC6)CC5)nc4c3F)c12` [Compound 45, (S)-3-(5-(4-((1-((1-(((7-(8-ethyl-7-fluoro-3-hydroxynaphthalen-1-yl)-8-fluoro-4-((R)-1-oxa-6-azaspiro[3.5]nonan-6-yl)pyrido[4,3-d]pyrimidin-2-yl)oxy)methyl)cyclopropyl)methyl)piperidin-4-yl)methyl)piperazin-1-yl)-1-oxoisoindolin-2-yl)piperidine-2,6-dione] were greater than 100 nM and less than 6.70.
On to `CCc1c(F)ccc2cc(O)cc(-c3ncc4c(N5CCC[C@@](C)(O)C5)nc(OCC5(CN6CC7(CC(N8CCN(c9ccc%10c(c9)CN([C@H]9CCC(=O)NC9=O)C%10=O)CC8)C7)C6)CC5)nc4c3F)c12` [Compound 122, (S)-3-(5-(4-(2-((1-(((7-(8-ethyl-7-fluoro-3-hydroxynaphthalen-1-yl)-8-fluoro-4-((R)-3-hydroxy-3-methylpiperidin-1-yl)pyrido[4,3-d]pyrimidin-2-yl)oxy)methyl)cyclopropyl)methyl)-2-azaspiro[3.3]heptan-6-yl)piperazin-1-yl)-1-oxoisoindolin-2-yl)piperidine-2,6-dione], for which the DC50 at KRAS G12V was in the range of 1 to 10 nM. The GI50 in the test with SW620 cells (SW620 cells, 6 days) was less than 10 nM.
`C[C@@]1(O)CCCN(c2nc(OCC3(CN4CCC5(CCC(N6CCN(c7ccc8c(c7)CN([C@H]7CCC(=O)NC7=O)C8=O)CC6)CC5)CC4)CC3)nc3c(F)c(-c4cc(N)cc5ccc(F)c(F)c45)ncc23)C1` [Compound 35, (S)-3-(5-(4-(3-((1-(((7-(3-amino-7,8-difluoronaphthalen-1-yl)-8-fluoro-4-((R)-3-hydroxy-3-methylpiperidin-1-yl)pyrido[4,3-d]pyrimidin-2-yl)oxy)methyl)cyclopropyl)methyl)-3-azaspiro[5.5]undecan-9-yl)piperazin-1-yl)-1-oxoisoindolin-2-yl)piperidine-2,6-dione] came in with a 50% degradation concentration (DC50) on KRAS G12V greater than 100 nM. In the test on SW620 cells (SW620 cells, 6 days), the GI50 was greater than 100 nM.
For `CCc1c(F)ccc2cc(O)cc(-c3ncc4c(N5CCC[C@]6(CCO6)C5)nc(OCC5(CN6CCC(CN7CCN(c8ccc9c(c8)CN([C@H]8CCC(=O)NC8=O)C9=O)CC7)CC6)CC5)nc4c3F)c12` [Compound 44, (S)-3-(5-(4-((1-((1-(((7-(8-ethyl-7-fluoro-3-hydroxynaphthalen-1-yl)-8-fluoro-4-((S)-1-oxa-6-azaspiro[3.5]nonan-6-yl)pyrido[4,3-d]pyrimidin-2-yl)oxy)methyl)cyclopropyl)methyl)piperidin-4-yl)methyl)piperazin-1-yl)-1-oxoisoindolin-2-yl)piperidine-2,6-dione], in the test on SW620 cells (SW620 cells, 6 days), the GI50 is less than 10 nM. The molecule further had a pIC50 at KRAS-G12V/RAF1 of 6.70 to 7.70.
Turning to `CCc1c(F)ccc2cc(O)cc(-c3ncc4c(N5CCC[C@@](C)(O)C5)nc(OCC5(CN6CCC7(CC6)CC(CN6Cc8ccc(C9CCC(=O)NC9=O)cc8C6)C7)CC5)nc4c3F)c12` (stereo partly drawn) [Compound 34, 3-(2-((7-((1-(((7-(8-ethyl-7-fluoro-3-hydroxynaphthalen-1-yl)-8-fluoro-4-((R)-3-hydroxy-3-methylpiperidin-1-yl)pyrido[4,3-d]pyrimidin-2-yl)oxy)methyl)cyclopropyl)methyl)-7-azaspiro[3.5]nonan-2-yl)methyl)isoindolin-5-yl)piperidine-2,6-dione], the DC50 at KRAS G12V is greater than 100 nM. The GI50 in the test with SW620 cells (SW620 cells, 6 days) is greater than 100 nM.
Molecule `CCc1c(F)ccc2cc(O)cc(-c3ncc4c(N5CCCOC6CC65)nc(OCC5(CN6CCC7(CC6)CC(CN6CCN(c8ccc9c(c8)CN([C@H]8CCC(=O)NC8=O)C9=O)CC6)C7)CC5)nc4c3F)c12` (stereo partly drawn) [Compound 165, (3S)-3-(5-(4-((7-((1-(((4-(2-oxa-6-azabicyclo[5.1.0]octan-6-yl)-7-(8-ethyl-7-fluoro-3-hydroxynaphthalen-1-yl)-8-fluoropyrido[4,3-d]pyrimidin-2-yl)oxy)methyl)cyclopropyl)methyl)-7-azaspiro[3.5]nonan-2-yl)methyl)piperazin-1-yl)-1-oxoisoindolin-2-yl)piperidine-2,6-dione] returned a DC50 at KRAS G12V of 1 to 10 nM. Also, in the test with SW620 cells, the GI50 lay in the range of 10 to 100 nM.
The molecule `CCc1c(F)ccc2cc(O)cc(-c3ncc4c(N5CCC[C@]6(CCO6)C5)nc(OCC5(CN6CC7(CCC(N8CCN(c9cc(F)c(C%10CCC(=O)NC%10=O)c(F)c9)CC8)CC7)C6)CC5)nc4c3F)c12` (stereo partly drawn) [Compound 85, 3-(4-(4-(2-((1-(((7-(8-ethyl-7-fluoro-3-hydroxynaphthalen-1-yl)-8-fluoro-4-((S)-1-oxa-6-azaspiro[3.5]nonan-6-yl)pyrido[4,3-d]pyrimidin-2-yl)oxy)methyl)cyclopropyl)methyl)-2-azaspiro[3.5]nonan-7-yl)piperazin-1-yl)-2,6-difluorophenyl)piperidine-2,6-dione] had a DC50 on KRAS G12V of 1 to 10 nM. In addition, the GI50 with SW620 cells (SW620 cells, 6 days) was less than 10 nM.
Taken in the same sequence, the figures for `CCc1c(F)ccc2cc(O)cc(-c3ncc4c(N5CCC[C@@](C)(O)C5)nc(OCC5(CN6CCC7(CC6)CC(C)(N6CCN(c8ccc9c(c8)CN(C8CCC(=O)NC8=O)C9=O)CC6)C7)CC5)nc4c3F)c12` (stereo partly drawn) [Compound 159, 3-[5-[4-[7-[[1-[[7-(8-ethyl-7-fluoro-3-hydroxy-1-naphthyl)-8-fluoro-4-[(3R)-3-hydroxy-3-methyl-1-piperidyl]pyrido[4,3-d]pyrimidin-2-yl]oxymethyl]cyclopropyl]methyl]-2-methyl-7-azaspiro[3.5]nonan-2-yl]piperazin-1-yl]-1-oxo-isoindolin-2-yl]piperidine-2,6-dione] were less than 1 nM and less than 10 nM.

The record behind these values is patent publication US20250092039A1, “GLUTARIMIDE-CONTAINING PAN-KRAS-MUTANT DEGRADER COMPOUNDS AND USES THEREOF” (Tiger Biotherapeutics Inc., priority 2022, published 2025).
